Measured values published in patent US20230365546A1, “5-SUBSTITUTED INDOLE 3-AMIDE DERIVATIVES, PREPARATION METHOD AND USE THEREOF” (ORIGIANT PHARMACEUTICAL CO., LTD, priority 2020, published 2023).

Columns and labels:
RIPK1 = RIPK1 (Homo sapiens (Human), UniProt Q13546); assay: In vitro kinase assay (Eurofins Kinase Profiler), IC50; format: biochemical; conditions: 0.001-10 μM, read-out: RIPK 1 (IC50)
Method: In vitro kinase assays were conducted using Kinase Profiler services provided by Eurofins. The experimental method was as follows: the small molecule compound to be tested (0.001-10 μM), the protein kinase to be tested were incubated with a buffer containing substrate, 10 mM magnesium acetate, and [γ-^33P-ATP], the reaction was started by adding Mg\TPmix, after incubation for a period of time at room temperature, a 3% phosphate solution was added to the buffer to stop the reaction. Subsequently, 10 μL of the reaction mixture was quantitatively pipetted onto P30 filter paper, which was washed three times with 75 mM phosphate solution and then once with methanol. The P30 filter paper was air-dried and scintillation fluid was added for scintillation counting.

HT-29 cells = assay: Protection against programmed necrosis of HT-29 cells (TNF α/Smac mimetic/Z-VAD-FMK, CCK8); format: cell-based; conditions: Homo sapiens, TNF α/Smac mimetic/Z-VAD-FMK induced 24 h, CCK8, read-out: HT-29 (EC50)
Method: In vitro protection against programmed necrosis of HT-29 cells was conducted by ourselves.
DMEM medium was purchased from Gibco Inc., penicillin and streptomycin were purchased from HyClone Inc., TNF α was purchased from PeproTech Inc., Smac mimetic and Z-VAD-FMK were purchased from Selleck Inc., CCK8 was purchased from Medchem Express Inc.
HT-29 cells (colon cancer cells) were cultured in DMEM+10% FBS+Penicillin/Streptomycin medium. During the experiments, HT-29 cells in logarithmic growth phase were harvested, seeded in a 96-well plate at specific numbers per well (typically 8×10^3 cells/well of adherent cells) and cultured overnight in a 37° C., 5% CO2 cell culture incubator. The next day, the compounds to be tested were diluted with culture medium to the corresponding concentrations and added into the corresponding wells of a 96-well plate, with 3 replicate wells for each sample, and a Vehicle control group and a blank Control group containing only culture medium were set at the same time. […] The absorbance was measured at 495 nm wavelength using a microplate reader, and the protection rate of the drug on the cells necrosis was calculated according to the following formula:
Protection rate of cell necrosis=[(X−C0)/(C−C0)]×100%
Wherein, C, C0, and X represent the mean absorbance values of the Vehicle control group, Blank control group and Drug treatment group, respectively.

RIPK1, sequence (Q13546 whole entry): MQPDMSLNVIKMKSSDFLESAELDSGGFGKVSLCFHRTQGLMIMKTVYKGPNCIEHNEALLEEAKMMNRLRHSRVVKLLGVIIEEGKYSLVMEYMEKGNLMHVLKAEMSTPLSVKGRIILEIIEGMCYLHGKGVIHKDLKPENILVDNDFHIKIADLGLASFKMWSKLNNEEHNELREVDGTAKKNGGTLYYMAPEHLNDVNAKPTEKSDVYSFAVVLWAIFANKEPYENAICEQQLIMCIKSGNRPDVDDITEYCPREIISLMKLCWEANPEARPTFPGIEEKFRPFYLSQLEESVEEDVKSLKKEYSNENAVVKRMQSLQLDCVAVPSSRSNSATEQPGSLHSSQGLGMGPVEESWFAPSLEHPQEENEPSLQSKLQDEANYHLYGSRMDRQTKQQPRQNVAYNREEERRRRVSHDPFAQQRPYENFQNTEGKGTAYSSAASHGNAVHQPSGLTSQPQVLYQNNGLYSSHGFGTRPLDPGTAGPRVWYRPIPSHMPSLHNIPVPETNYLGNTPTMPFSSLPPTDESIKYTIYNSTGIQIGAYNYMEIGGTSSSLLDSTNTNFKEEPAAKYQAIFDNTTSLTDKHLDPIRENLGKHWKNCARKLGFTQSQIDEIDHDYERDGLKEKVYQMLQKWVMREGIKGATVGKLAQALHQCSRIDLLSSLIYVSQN

SMILES | IC50 (RIPK1) [nM] | EC50 (HT-29 cells) [nM]
O=C(NCc1ccc(F)c(F)c1)c1c[nH]c2ccc(-c3ccc4nc(NC(=O)C5CC5)sc4c3)cc12 [Compound 2] | 10 to 100 | 100 to 1000
O=C(NCc1cc(F)cc(F)c1)c1c[nH]c2ccc(-c3ccc4nc(NC(=O)C5CC5)sc4c3)cc12 [Compound 3] | 10 to 100 | 10 to 100
O=C(NCc1cc(C(F)(F)F)cc(C(F)(F)F)c1)c1c[nH]c2ccc(-c3ccc4nc(NC(=O)C5CC5)sc4c3)cc12 [Compound 5] | 100 to 1000 | ≥ 1000
N#Cc1ccc(CNC(=O)c2c[nH]c3ccc(-c4ccc5nc(NC(=O)C6CC6)sc5c4)cc23)cc1 [Compound 7] | 10 to 100 | 10 to 100
O=C(NCc1cccc(C(F)(F)F)c1)c1c[nH]c2ccc(-c3ccc4nc(NC(=O)C5CC5)sc4c3)cc12 [Compound 8] | 10 to 100 | 1 to 10
O=C(NCc1cccc([N+](=O)[O-])c1)c1c[nH]c2ccc(-c3ccc4nc(NC(=O)C5CC5)sc4c3)cc12 [Compound 10] | 100 to 1000 | 100 to 1000
COc1cc(CNC(=O)c2c[nH]c3ccc(-c4ccc5nc(NC(=O)C6CC6)sc5c4)cc23)cc(OC)c1 [Compound 11] | 100 to 1000 | ≥ 1000
COc1cccc(CNC(=O)c2c[nH]c3ccc(-c4ccc5nc(NC(=O)C6CC6)sc5c4)cc23)c1 [Compound 12] | 100 to 1000 | ≥ 1000
O=C(NCc1cccc2ccccc12)c1c[nH]c2ccc(-c3ccc4nc(NC(=O)C5CC5)sc4c3)cc12 [Compound 14] | ≥ 1000 | ≥ 1000
Cc1cccc(CNC(=O)c2c[nH]c3ccc(-c4ccc5nc(NC(=O)C6CC6)sc5c4)cc23)c1 [Compound 15] | 10 to 100 | 10 to 100
O=C(NCc1ccc(C(F)(F)F)cc1)c1c[nH]c2ccc(-c3ccc4nc(NC(=O)C5CC5)sc4c3)cc12 [Compound 16] | 10 to 100 | 10 to 100
O=C(NCc1ccco1)c1c[nH]c2ccc(-c3ccc4nc(NC(=O)C5CC5)sc4c3)cc12 [Compound 17] | 10 to 100 | 10 to 100
O=C(NCc1cccs1)c1c[nH]c2ccc(-c3ccc4nc(NC(=O)C5CC5)sc4c3)cc12 [Compound 18] | 10 to 100 | 1 to 10
O=C(NCc1cccc(OC(F)(F)F)c1)c1c[nH]c2ccc(-c3ccc4nc(NC(=O)C5CC5)sc4c3)cc12 [Compound 19] | 10 to 100 | 1 to 10
O=C(NCc1ccncc1)c1c[nH]c2ccc(-c3ccc4nc(NC(=O)C5CC5)sc4c3)cc12 [Compound 20] | ≥ 1000 | ≥ 1000
O=C(NCc1cccc(Cl)c1)c1c[nH]c2ccc(-c3ccc4nc(NC(=O)C5CC5)sc4c3)cc12 [Compound 22] | 10 to 100 | 1 to 10

SMILES | IC50 (RIPK1) [nM] | EC50 (HT-29 cells) [nM]
O=C(NCc1cccc(Br)c1)c1c[nH]c2ccc(-c3ccc4nc(NC(=O)C5CC5)sc4c3)cc12 [Compound 23] | 100 to 1000 | 1 to 10
O=C(NCc1ccccc1C(F)(F)F)c1c[nH]c2ccc(-c3ccc4nc(NC(=O)C5CC5)sc4c3)cc12 [Compound 24] | 100 to 1000 | 10 to 100
COc1ccc(CNC(=O)c2c[nH]c3ccc(-c4ccc5nc(NC(=O)C6CC6)sc5c4)cc23)cc1OC [Compound 26] | 100 to 1000 | ≥ 1000
O=C(NCc1ccccc1)c1c[nH]c2ccc(-c3ccc4nc(NC(=O)C5CC5)sc4c3)cc12 [Compound 27] | – | 10 to 100
CC(C)(C)c1ccc(CNC(=O)c2c[nH]c3ccc(-c4ccc5nc(NC(=O)C6CC6)sc5c4)cc23)cc1 [Compound 29] | 100 to 1000 | 100 to 1000
C[C@H](NC(=O)c1c[nH]c2ccc(-c3ccc(NC(=O)C4CC4)nc3)cc12)c1cccc(F)c1 [Compound 41] | 100 to 1000 | 100 to 1000
C[C@H](NC(=O)c1c[nH]c2ccc(-c3ccc(NC(=O)C4CC4)cc3)cc12)c1cccc(F)c1 [Compound 42] | 100 to 1000 | ≥ 1000
C[C@H](NC(=O)c1c[nH]c2ccc(-c3cnc(NC(=O)C4CC4)nc3)cc12)c1cccc(F)c1 [Compound 43] | ≥ 1000 | ≥ 1000
C[C@H](NC(=O)c1c[nH]c2ccc(-c3ccc4nc(NC(=O)C5CC5)ncc4c3)cc12)c1cccc(F)c1 [Compound 44] | 100 to 1000 | 10 to 100
C[C@H](NC(=O)c1c[nH]c2ccc(-c3ccc4nc(NC(=O)C5CC5)nn4c3)cc12)c1cccc(F)c1 [Compound 45] | 10 to 100 | 10 to 100
C[C@H](NC(=O)c1c[nH]c2ccc(-c3ccc4nc(NC(=O)C(C)(C)C)sc4c3)cc12)c1cccc(F)c1 [Compound 50] | 10 to 100 | 10 to 100
C[C@H](NC(=O)c1c[nH]c2ccc(-c3ccc4nc(NC(=O)C(F)(F)F)sc4c3)cc12)c1cccc(F)c1 [Compound 52] | 100 to 1000 | 10 to 100
Cn1cc(C(=O)NCc2cc(F)ccc2F)c2cc(-c3ccc4nc(NC(=O)C5CC5)sc4c3)ccc21 [Compound 54] | 10 to 100 | < 1
C[C@H](NC(=O)c1cn(C)c2ccc(-c3ccc4nc(NC(=O)C5CC5)nn4c3)cc12)c1cccc(F)c1 [Compound 90] | 100 to 1000 | –
C[C@H](NC(=O)c1cn(C)c2ccc(-c3ccc4c(NC(=O)C5CC5)n[nH]c4c3)cc12)c1cccc(F)c1 [Compound 110] | < 1 | –

Further lines, with some results ahead:

IC50 (RIPK1) [nM] | SMILES | EC50 (HT-29 cells) [nM]
10 to 100 | COc1ccc(CNC(=O)c2c[nH]c3ccc(-c4ccc5nc(NC(=O)C6CC6)sc5c4)cc23)cc1 [Compound 1] | 10 to 100
10 to 100 | O=C(NCc1cccc(F)c1)c1c[nH]c2ccc(-c3ccc4nc(NC(=O)C5CC5)sc4c3)cc12 [Compound 4] | 10 to 100
100 to 1000 | O=C(NCc1ccc(F)cc1)c1c[nH]c2ccc(-c3ccc4nc(NC(=O)C5CC5)sc4c3)cc12 [Compound 6] | 10 to 100
10 to 100 | O=C(NCc1ccc(F)cc1F)c1c[nH]c2ccc(-c3ccc4nc(NC(=O)C5CC5)sc4c3)cc12 [Compound 9] | 1 to 10
10 to 100 | Cc1ccc(CNC(=O)c2c[nH]c3ccc(-c4ccc5nc(NC(=O)C6CC6)sc5c4)cc23)cc1 [Compound 13] | 1 to 10
10 to 100 | O=C(NCc1ccccc1F)c1c[nH]c2ccc(-c3ccc4nc(NC(=O)C5CC5)sc4c3)cc12 [Compound 21] | 1 to 10
10 to 100 | O=C(NCc1cc(F)ccc1F)c1c[nH]c2ccc(-c3ccc4nc(NC(=O)C5CC5)sc4c3)cc12 [Compound 25] | < 1
100 to 1000 | CC(C)c1ccc(CNC(=O)c2c[nH]c3ccc(-c4ccc5nc(NC(=O)C6CC6)sc5c4)cc23)cc1 [Compound 28] | ≥ 1000
10 to 100 | C[C@H](NC(=O)c1c[nH]c2ccc(-c3ccc4nc(NC(=O)C5CC5)sc4c3)cc12)c1ccc(F)cc1 [Compound 30] | < 1
100 to 1000 | C[C@@H](NC(=O)c1c[nH]c2ccc(-c3ccc4nc(NC(=O)C5CC5)sc4c3)cc12)c1ccc(F)cc1 [Compound 31] | 100 to 1000
10 to 100 | COc1ccc([C@@H](C)NC(=O)c2c[nH]c3ccc(-c4ccc5nc(NC(=O)C6CC6)sc5c4)cc23)cc1 [Compound 32] | 1 to 10
10 to 100 | COc1ccc([C@H](C)NC(=O)c2c[nH]c3ccc(-c4ccc5nc(NC(=O)C6CC6)sc5c4)cc23)cc1 [Compound 33] | < 1
100 to 1000 | C[C@@H](NC(=O)c1c[nH]c2ccc(-c3ccc4nc(NC(=O)C5CC5)sc4c3)cc12)c1cccc(F)c1 [Compound 35] | 10 to 100
100 to 1000 | C[C@@H](NC(=O)c1c[nH]c2ccc(-c3ccc4nc(NC(=O)C5CC5)sc4c3)cc12)c1cccc(Cl)c1 [Compound 36] | 100 to 1000
10 to 100 | C[C@H](NC(=O)c1c[nH]c2ccc(-c3ccc4nc(NC(=O)C5CC5)sc4c3)cc12)c1cccc(Cl)c1 [Compound 37] | 1 to 10
10 to 100 | COc1cccc([C@H](C)NC(=O)c2c[nH]c3ccc(-c4ccc5nc(NC(=O)C6CC6)sc5c4)cc23)c1 [Compound 38] | 1 to 10
100 to 1000 | COc1cccc([C@@H](C)NC(=O)c2c[nH]c3ccc(-c4ccc5nc(NC(=O)C6CC6)sc5c4)cc23)c1 [Compound 39] | 10 to 100
100 to 1000 | C[C@H](NC(=O)c1c[nH]c2ccc(-c3ccc4sc(NC(=O)C5CC5)nc4c3)cc12)c1cccc(F)c1 [Compound 40] | 10 to 100
10 to 100 | C[C@H](NC(=O)c1c[nH]c2ccc(-c3ccc4nc(NC(=O)C5CCC5)sc4c3)cc12)c1cccc(F)c1 [Compound 47] | 1 to 10
10 to 100 | C[C@H](NC(=O)c1c[nH]c2ccc(-c3ccc4nc(NC(=O)C5CCCC5)sc4c3)cc12)c1cccc(F)c1 [Compound 48] | 1 to 10
10 to 100 | C[C@H](NC(=O)c1c[nH]c2ccc(-c3ccc4nc(NC(=O)C5CCCCC5)sc4c3)cc12)c1cccc(F)c1 [Compound 49] | 10 to 100
10 to 100 | C[C@H](NC(=O)c1c[nH]c2ccc(-c3ccc4nc(NC(=O)C5CCOCC5)sc4c3)cc12)c1cccc(F)c1 [Compound 51] | 10 to 100
100 to 1000 | C[C@H](NC(=O)c1c[nH]c2ccc(-c3ccc4nc(NC(=O)C5CCN(C)CC5)sc4c3)cc12)c1cccc(F)c1 [Compound 53] | 100 to 1000
